Laboratory results reported in patent US12673050B2, “Compositions and their use for the treatment of A1-antitrypsin deficiency” (Centessa Pharmaceuticals (UK) Limited, priority 2021, dated 2026).

Target: human Z A1AT (Homo sapiens, UniProt P01009, E366K)
Assay: Circulating human Z A1AT levels in huZ mice
Format: in vivo, mouse
Parameters: from tissue; host or cells: huZ transgenic mice (line Z11.03, C57Bl/6); expressed in liver, measured in plasma
Settings: huZ mice, 5, 15 or 50 mg/kg twice a day by oral gavage for 14 days, plasma days 12-14
Description: The huZ mouse (also referred to as the PiZZ mouse) is a transgenic mouse strain that contains multiple copies of the Z variant of the human A1AT gene, developed by two separate groups (Dycaico et al (Science (1988) 242:1409-12) and Carlson et al (J. Clin Invest (1989) 83:1183-90)). HuZ mice are on a C57Bl/6 background and express the human Z A1AT protein in liver tissue. The mice used in this study are from the progeny of Carlson and colleagues (transgenic line Z11.03). […]
HuZ mice (n=4/group: male or female) with basal human A1AT plasma levels of between 200-600 μg/ml were treated with either vehicle or (S)-1-((2-(trifluoromethyl)phenyl)sulfonyl)piperidine-3-carboxylic acid at 5, 15 or 50 mg/kg twice a day by oral gavage for 14 consecutive days. […] Human A1AT levels in mouse plasma samples were measured by ELISA (Human Serpin A1/α1 antitrypsin duo set ELISA, R& D Systems, DY1268) per manufacturer's instructions.
Briefly, a 96 well plate was coated with human A1AT capture antibody overnight at room temperature (1:180 dilution from stock, 100 μl final volume/well). […] After which, 50 μl stop solution (2M H2SO4) was added and optical density (OD) of each well was read at 450 nm with 570 nm blank subtracted from each well using a microplate reader. […]

Chain of human Z A1AT (P01009 25-418 E366K): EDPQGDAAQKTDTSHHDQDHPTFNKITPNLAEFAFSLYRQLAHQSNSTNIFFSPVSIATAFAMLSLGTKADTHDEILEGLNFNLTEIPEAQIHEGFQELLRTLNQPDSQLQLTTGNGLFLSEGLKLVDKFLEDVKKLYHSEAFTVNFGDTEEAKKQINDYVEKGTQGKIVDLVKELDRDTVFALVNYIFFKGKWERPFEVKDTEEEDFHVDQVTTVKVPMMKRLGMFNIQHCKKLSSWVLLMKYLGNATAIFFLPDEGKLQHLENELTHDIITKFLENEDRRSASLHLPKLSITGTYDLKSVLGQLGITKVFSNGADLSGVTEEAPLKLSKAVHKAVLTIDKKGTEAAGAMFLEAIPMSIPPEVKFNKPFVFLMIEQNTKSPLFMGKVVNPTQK

With `O=C(O)[C@H]1CCCN(S(=O)(=O)c2ccccc2C(F)(F)F)C1` [(S)-1-((2-(Trifluoromethyl)phenyl)sulfonyl)piperidine-3-carboxylic acid] the “circulating human Z A1AT compared to baseline levels” value was “stimulates secretion of human Z A1AT compared to baseline levels in huZ mice in a dose dependent manner”.
